# Experimental data from US6465647B1, “Oxygen, sulfur and nitrogen substituted cyclohexene and cyclohexane derivatives having retinoid-like biological activity” (Allergan, Inc., priority 1999, dated 2002).
# Test system: ornithine decarboxylase (ODC)
# Assay: Ornithine decarboxylase (ODC) assay: inhibition of TPA induction of ODC activity
# Assay type: biochemical
# Conditions: concentration of the test compound which causes 60% inhibition in the ODC assay (TPA-induced ODC activity)
# Excerpt: A classic measure of retinoic acid activity involves measuring the effects of retinoic acid on ornithine decarboxylase. The original work on the correlation between retinoic acid and a decrease in cell proliferation was done by Verma & Boutwell, Cancer Research, 1977, 37, 2196-2201. That reference discloses that ornithine decarboxylase (ODC) activity increased precedent to polyamine biosynthesis. It has been established elsewhere that increases in polyamine synthesis can be correlated or associated with cellular proliferation. Thus, if ODC activity could be inhibited, cell hyperproliferation could be modulated. Although all cases for ODC activity increases are unknown, it is known that 12-0-tetradecanoylphorbol-13-acetate (TPA) induces ODC activity. Retinoic acid inhibits this induction of ODC activity by TPA. […] “IC60” is that concentration of the test compound which causes 60% inhibition in the ODC assay. By analogy, “IC80”, for example, is that concentration of the test compound which causes 80% inhibition in the ODC assay.
# Table 1 discloses the activity of certain exemplary compounds of the invention in the above-described oinithine decarboxylase (ODC) assay.
row,IC60,Compound
1,5.1 nM,"CCOC(=O)c1ccc(C#C/C=C/C2=C(C)CCCC2OC(=O)C(C)(C)C)cc1 (single isomer, unassigned) [Compound 6a, Ethyl (−)-(E)-4-(4-(6-(2,2-Dimethylpropanoyl)oxy-2-methylcyclohex-1-enyl)but-3-ene-1-ynyl)benzoate]"
2,20.9 nM,"CCOC(=O)c1ccc(C#C/C=C/C2=C(C)CCCC2OC(=O)CC)cc1 (stereo not drawn) [Compound 4a, Ethyl (−)-(E)-4-(4-(6-Propionyloxy-2-methylcyclohex-1-enyl)but-3-en-1-ynyl)benzoate]"
3,10.3 nM,CCOC(=O)c1ccc(C#CC=CC2=C(C)CCCC2=NOCc2ccccc2)cc1 [Compound 11]
4,234 nM,"CCOC(=O)c1ccc(C#C/C=C/C2=C(C)CCCC2OC(=O)C(C)C)cc1 (stereo not drawn) [Compound 5b, Ethyl (+)-(E)-4-(4-(6-iso-Butyryloxy-2-methyicyclohex-1-enyl)but-3-ene-1-ynyl)benzoate]"
5,7.8 nM,"CCOC(=O)C=C1CCCC(C)=C1C=CC#Cc1ccc(C(=O)OCC)cc1 [Compound 12, Ethyl 4-(4-(6-Ethoxycarbonylmethylene-2-methylcyclohex-1-enyl)but-3-en-1-ynyl)benzoate]"
6,4.3 nM,"CCOC(=O)c1ccc(C#C/C=C/C2=C(C)CCCC2OC(C)=O)cc1 (single isomer, unassigned) [Compound 3b, Ethyl (+)-(E)-4-(4-(6-Acetyloxy-2-methylcyclohex-1-enyl)but3-en-1-ynyl)benzoate]"
7,124 nM,"CCOC(=O)c1ccc(C#C/C=C/C2=C(C)CCCC2OC(=O)C(C)(C)C)cc1 (single isomer, unassigned) [Compound 6b, Ethyl (+)-(E)-4-(4-(6-(2,2-Dimethylpropanoyl)oxy-2-methylcyclohex-1-enyl)but-3-ene-1-ynyl)benzoate]"
8,0.52 nM,"CCOC(=O)c1ccc(C#C/C=C/C2=C(C)CCCC2OC(C)=O)cc1 (single isomer, unassigned) [Compound 3a, Ethyl (−)-(E)-4-(4-(6-Acetyloxy-2-methylcyclohex-1-enyl)but-3-en-1-ynyl)benzoate]"
9,8.6 nM,"CCOC(=O)c1ccc(C#C/C=C/C2=C(C)CCCC2OC(=O)c2ccccc2)cc1 (stereo not drawn) [Compound 7a, Ethyl (−)-(E)-4-(4-(6-Benzoyloxy-2-methylcyclohex-1-enyl)but-3-ene-1-ynyl)benzoate]"
10,2.4 nM,CCOC(=O)c1ccc(C#CC=CC2=C(C)CCCC2=NOC)cc1 [Compound 10]

# Same assay, conditions: concentration of the test compound which causes 60% inhibition in the ODC assay (TPA-induced ODC activity); listed as Sa
row,IC60,Compound
1,15.7 nM,"CCOC(=O)c1ccc(C#C/C=C/C2=C(C)CCCC2OC(=O)C(C)C)cc1 (stereo not drawn) [Compound 5a, Ethyl (−)-(E)-4-(4-(6-iso-Butyryloxy-2-methylcyclohex-1-enyl)but-3-ene-1-ynyl)benzoate]"
